Columns and labels:
DEX-treated mice [1] = test: Locomotion test (LMT), neonatal dexamethasone exposure model; type: in vivo; conditions: juvenile DEX-treated mice, 10 mg/kg i.p., day after injection
Experimental: A new animal model of depression was prepared by exposing mice neonatally to dexamethasone (hereinafter abbreviated as DEX). […] The mouse model was prepared and reported only recently by the inventors of the present application and their collaborators (Non Patent Literature 18). […] Further, alterations were found in levels of amino acids (glutamate, glutamine, glycine, D-serine, and L-serine) in mouse brains after the neonatal DEX exposure (Non Patent Literature 18). Those amino acids are known to be associated with NMDA receptor mediated neurotransmission. Thus, it is conceivable that alterations in glutamatergic transmission via the NMDA receptor after the neonatal DEX exposure may be involved in the depression-like behavior in the juvenile mice and the adult mice (Non Patent Literature 18). […]
(§1) The antidepressant effects of the agent were investigated for juvenile mice by behavioral tests such as the TST, the PST, the LMT, and a 1% sucrose preference test (SPT) (FIG. 2A). […] The immobility time of each mouse was recorded for 10 minutes. […] The immobility time was calculated as a value obtained by subtracting active time from total time, using the analysis software of the apparatus. Cumulative immobility time was recorded over 6 minutes during a test period. […] The locomotor activity of the mice was counted with SCANET MV-40, and the cumulative exercise of the mice was recorded for 60 minutes. […]

DEX-treated mice [2] = test: Forced swimming test (FST), neonatal dexamethasone exposure model of depression; type: in vivo; conditions: juvenile DEX-treated mice, 10 mg/kg i.p. single injection
Experimental: (§2) A new animal model of depression was prepared by exposing mice neonatally to dexamethasone (hereinafter abbreviated as DEX). […] The mouse model was prepared and reported only recently by the inventors of the present application and their collaborators (Non Patent Literature 18). […] Further, alterations were found in levels of amino acids (glutamate, glutamine, glycine, D-serine, and L-serine) in mouse brains after the neonatal DEX exposure (Non Patent Literature 18). Those amino acids are known to be associated with NMDA receptor mediated neurotransmission. Thus, it is conceivable that alterations in glutamatergic transmission via the NMDA receptor after the neonatal DEX exposure may be involved in the depression-like behavior in the juvenile mice and the adult mice (Non Patent Literature 18).
(§3) The preparation of the animal model of depression and the administration of the agent were specifically performed as described below (FIG. 2A). Male and female ICR mice (9-week-old, Japan SLC, Inc., Hamamatsu, Japan) were used. The mice were given free access to water and feed. A breeding procedure consisted of housing three to four females with one male, for 14 days. On the final day of this period, the females were placed in isolation and checked daily around the expected delivery day. The day of birth was defined as day 0. The mice were injected intraperitoneally with DEX (Wako Pure Chemical Industries, Ltd., Tokyo, Japan) dissolved in saline on day 1, day 2, and day 3 at doses of 0.5 mg/kg body weight, 0.3 mg/kg body weight, and 0.1 mg/kg body weight, respectively. In addition, normal controls were injected with equal volumes (10 ml/kg) of saline.
as §1, with “2A). The TST and the PST were performed twice, i.e., the day (27 hours and 29 hours, respectively) and 7 days after the injection of ketamine, and the LMT and the SPT were performed on the day and 2 days after the injection of ketamine. The TST was performed as described below. First, the mice were taken out from cages, and then a small piece of an adhesive tape was bonded onto a portion approximately 2 cm away from the tip of the tail of the mice.” for “2A).”

DEX-treated mice [3] = test: Tail suspension test (TST), neonatal dexamethasone exposure model of depression; type: in vivo; conditions: juvenile DEX-treated mice, 10 mg/kg i.p. single injection
Experimental: as §2, §3
as §1, with “2A). The TST and the PST were performed twice, i.e., the day (27 hours and 29 hours, respectively) and 7 days after the injection of ketamine, and the LMT and the SPT were performed on the day and 2 days after the injection of ketamine. The TST was performed as described below. First, the mice were taken out from cages, and then a small piece of an adhesive tape was bonded onto a portion approximately 2 cm away from the tip of the tail of the mice.” for “2A).”

[4] = system: medial forebrain bundle self-stimulation in rats; test: Intracranial self-stimulation (ICSS), frequency-rate procedure; conditions: for ICSS, anhedonia: doses 10, 30 mg/kg, Present study; for ICSS frequency-rate response curve: rats, 3, 10 or 30 mg/kg i.p. 2 hours prior to test session, vs saline vehicle
Control C57/B6 mice = test: Locomotion-enhancing effect in control mice; type: in vivo
Experimental: An effect of ketamine on the locomotion of mice was tested using SCANET MV-40 ([…] Co., Ltd., Toyama, Japan). Specifically, the locomotion was measured for a total of 180 minutes, i.e., 60 minutes before injection to 120 minutes after injection, and calculated as a locomotion per 10 minutes. The statistical analysis of the results of the locomotion was performed by repeated one-way analysis of variance (repeated one-way ANOV A), followed by a least significant difference test (LSD test).

[5] = system: dopamine release in the striatum; conditions: imaging studies in nonhuman primates; Hashimoto et al., 2017; cited from earlier work
[6] = 3 mg/kg i.p. 2 hours prior to test session, 10 rats
[7] = 10 mg/kg i.p. 2 hours prior to test session, 10 rats
[8] = 30 mg/kg i.p. 2 hours prior to test session, 10 rats
[9] = baseline session before dosing on the 3 mg/kg test day, 10 rats
[10] = baseline session before dosing on the 10 mg/kg test day, 10 rats
[11] = baseline session before dosing on the 30 mg/kg test day, 10 rats

Structure (SMILES) | locomotion in the LMT (DEX-treated mice [1]) | immobility time in the FST (DEX-treated mice [2]; 29 hours after injection) | immobility time in the FST (DEX-treated mice [2]; 7 days after injection) | immobility time in the TST (DEX-treated mice [3]; 27 hours after injection) | immobility time in the TST (DEX-treated mice [3]; 7 days after injection) | M50, Test, mean log M50 frequency (SEM) [4, 6] | Threshold (T0), Test, mean log T0 frequency (SEM) [4, 6] | Threshold (T0), Test, mean log T0 frequency (SEM) [4, 7] | M50, Test, mean log M50 frequency (SEM) [4, 8] | Threshold (T0), Test, mean log T0 frequency (SEM) [4, 8] | M50, Baseline, mean log M50 frequency (SEM) [4, 9] | Threshold (T0), Baseline, mean log T0 frequency (SEM) [4, 9] | Threshold (T0), Baseline, mean log T0 frequency (SEM) [4, 10] | M50, Baseline, mean log M50 frequency (SEM) [4, 11] | Threshold (T0), Baseline, mean log T0 frequency (SEM) [4, 11] | ICSS, anhedonia [4] | ICSS frequency-rate response curve [4] | dopamine release in the striatum [5] | other results
CN[C@@]1(c2ccccc2Cl)CCCCC1=O.Cl [R(−)-ketamine] | no difference in locomotion | markedly reduced the immobility time | significantly reduced the immobility time | markedly reduced the immobility time | significantly reduced the immobility time | 1.98 (0.01) log/Hz | 1.88 (0.02) log/Hz | 1.93 (0.03) log/Hz | 1.99 (0.02) log/Hz | 1.90 (0.02) log/Hz | 2.00 (0.02) log/Hz | 1.91 (0.02) log/Hz | 1.91 (0.03) log/Hz | 1.98 (0.02) log/Hz | 1.89 (0.02) log/Hz | 10, 30 - no anhedonia | did not significantly alter behavior of rats | not | M50, Test, mean log M50 frequency (SEM) [4, 7]: 2.02 (0.02) log/Hz; M50, Baseline, mean log M50 frequency (SEM) [4, 10]: 2.00 (0.02) log/Hz; locomotion after injection (Control C57/B6 mice; control mice, 5, 10 or 20 mg/kg): did not affect the locomotion
CN[C@]1(c2ccccc2Cl)CCCCC1=O [S(+)-ketamine] | no difference in locomotion | markedly reduced the immobility time | did not reduce the immobility time | markedly reduced the immobility time | did not reduce the immobility time | 1.98 log/Hz | 1.88 log/Hz | 1.90 log/Hz | 2.07 log/Hz | 1.95 log/Hz | 1.97 (0.02) log/Hz | 1.86 (0.02) log/Hz | 1.87 (0.02) log/Hz | 1.98 (0.01) log/Hz | 1.87 (0.02) log/Hz | 10, 30 anhedonia | significant downward shift in the stimulation-frequency curve | increases dopamine release in the striatum | M50, Test, mean log M50 frequency ([4]; 15 mg/kg (so in the source) i.p., 10 rats): 2.00 log/Hz; M50, Baseline, mean log M50 frequency (SEM) ([4]; baseline session before dosing on the 15 mg/kg (so in the source) test day, 10 rats): 1.97 (0.01) log/Hz; time after injection at which locomotion returned to a normal value (Control C57/B6 mice; control mice, 10 mg/kg or 20 mg/kg): 30 min; locomotion after injection (Control C57/B6 mice; control mice, 10 mg/kg or 20 mg/kg, 10 minutes and 20 minutes after injection, vs saline): significant increase in locomotion

Reference: patent US11426367B2, “Methods of treating substance abuse” (Perception Neuroscience, Inc., priority 2018, dated 2022)
